The nature of data set [1]: stability of the bases in water, isopropyl myristate and moisture (NMR, TLC). It counts as physicochemical. The note with it: for qualitative order of stability to atmospheric moisture: IPM solution, NMR; for stability in IPM: 24 hours after sonication for 3 hours; for degraded at 48 h: isopropyl myristate, atmospheric moisture, room temperature, two days, read-out: decomposition of base prodrugs in IPM filtrates. The method, then:
All the suspensions or solutions were prepared by sonicating mixtures of the drug or prodrugs in the appropriate solvent in sealed flasks for 3 hr. The sealed solutions or suspensions that resulted were allowed to sit at room temperature for 24 hr, then they were briefly (15 sec.) vortexed and 0.50 ml samples were removed and applied to the membranes (area=4.9 cm^2). After an additional 24 hr the remaining sealed suspensions of the prodrugs were filtered, the filtrates and residues were analyzed by inspection of their NMR spectra and TLC to determine if any decomposition of the prodrugs had taken place (none had), and the filtrates were analyzed by UV spectroscopy to determine if the amount of prodrug still in solution corresponded to the solubilities determined in separate experiments (they did). The filtrates were analyzed neat while the residues were dissolved in CDCl3 and the spectra were analyzed for the appearance of the C8 ---H absorption of theophylline at δ7.77 and the C6 ---H absorption of 5-FU at δ7.7. TLC analyses were run using ether as the eluents. The remaining suspensions of the parent drugs were also filtered and the filtrates were analyzed by UV spectroscopy to determine if the amount of drug still in solution corresponded to the solubilities determined in separate experiments (they did).
The derivatives are not stable in the presence of water. […] NMR experiments also supported the low stability of the derivatives in water. Solutions of the bases were prepared in dry DMSO-d6 and then D2 O was added stepwise to the solutions. […] Similar, decomposition of the bases was also observed in other protic solvents such as methanol and propylene glycol.
On the other hand, the stability of the bases in IPM was variable.
When the IPM filtrates, which were used to determine the IPM solubilities of II and III were exposed to atmospheric moisture at room temperature for two days, 50-80% decomposition of the base prodrugs in solution occurred and precipitation of theophylline resulted as determined by analysis of NMR spectra of the solutions and precipitates. The IPM solutions of the other bases eventually decomposed 1-10% upon prolonged exposure (two weeks) to atmospheric moisture. Although no quantitative data were determined, the qualitative order of stability of the theophylline bases to exposure to atmospheric moisture in IMP solution was V=VI>>IV>III>II,as determined by analysis of NMR spectra of their IPM solutions and precipitates from IPM solutions.

Data set [2] can be described thus: solubilities of prodrugs and parent drugs in selected solvents (Example 8). The note with it: for trend in IPM solubility: NMR of neat filtrates, UV.
Data set [3] can be described thus: half-lives of hydrolysis of cytosine and 5-fluorocytosine derivatives in phosphate buffer. The following applies: for half-life: phosphate buffer; for pH dependence of hydrolysis rate: basic pH.
For data set [4] the following is noted: mouse; for Kp, initial phase: 100000 uM.
Procedure: The diffusion experiments were performed in triplicate for each compound. Three female, hairless mice were sacrificed by cervical dislocation, and the entire dorsal skin removed by blunt dissection from the underlying tissues. The skins were secured with a rubber gasket to the diffusion cell, with the dermis in contact with the receptor phase. The receptor side of the cell was filled with isotonic phosphate buffer (pH 73 at 32°, 0.05 M, μ=0.15) with 1% formaldehyde added to inhibit microbial growth. The receptor phase was kept at a constant temperature of 32° and was stirred magnetically.
The donor phases were applied as suspensions (0.5 ml, 0.1 M) to the skin surface. […] Each sample was replaced by an equal amount of fresh buffer.
These last two steps were used to determine the mass balance. This part of the diffusion cell study is termed the first application.
Samples were obtained using the same schedule described above.
The slopes for each phase of the plotted lines were obtained by linear regression analysis (r>0.990); the slopes were then divided by the surface area of the diffusion cells (4.9 cm^2) to obtain a value for flux (J) in mg/cm^2 /h. The reported fluxes are the average flux of the three diffusion cells.
Data set [5] is described as follows: lipid and aqueous solubilities of 5-FC and its derivatives. The class given is physicochemical. The note with it: for solubility / Solubility, water: distilled water (pH 5.5), approximate, decomposing; for solubility at 48 h / Solubility, IPM: isopropyl myristate; for solubility at 48 h: organic solvent or mixture, read-out: Solubility, IPM; for Solubility, IPM: 2880 min; for IPM solubility relative to other compound: XIV vs 5-FC molar basis, XIIb vs XIIa.

The mark [6] stands for this setting: isopropyl myristate, organic solvent or mixture, Solubility, IPM, stirred at room temperature 24 hr.
Setting [7] is: water, pH 7, water, Solubility, water (apparent).
Setting [8] is: pH 7.1, Half-life of hydrolysis, cytosine derivatives.
Where [9] appears, read: isopropyl myristate, organic solvent or mixture, Solubility, IPM, suspensions sonicated for 3 hr.
The mark [10] stands for this setting: pH 7.1, Half-life of hydrolysis, 5-FC derivatives.

The values below come from patent publication US4975433A, “Aminomethyl derivatives of biologically active substances and enhanced delivery thereof across topical membranes” (priority 1989, dated 1990).

Values after ≈ are worked out from the molar mass of the structure shown. Values joined by “and” are separate entries in the source; they are usually repeats but may differ in a detail not shown here. Equal entries are not always repeated. Where two headings read alike, the source gives them in different places. Marks after values point to notes of the source that are not given here. Where only a bound is given, the exact number is not on record here.

Regarding `CCN(CC)Cn1cnc2c1c(=O)n(C)c(=O)n2C` [III, 7-(Diethylamino)methyltheophylline], in data set [1], the “qualitative order of stability to atmospheric moisture” value (from here on “qualitative order of stability”) was “V=VI>>IV>III>II”, the “stability in IPM” value was “stable in solution but the IPM insoluble material was theophylline” and the degraded at 48 h lay within 50 to 80%. Moreover, in data set [2] (IPM), the “trend in IPM solubility” value is given as “III>IV>VI>II>V”. Besides, in data set [2] (setting [6]), the solubility was determined as 32.5 mg/mL (≈ 122 mM). Besides, the solubility in data set [2] (setting [7]) is greater than 100 mg/mL.
As for `CN(C)Cn1cnc2c1c(=O)n(C)c(=O)n2C` [II], the degraded at 48 h in data set [1] was 50 to 80%. The solubility is 7.6 mg/mL (≈ 32 mM) in data set [2] (isopropyl myristate, organic solvent or mixture, Solubility, IPM, both sonicated 3 hr and stirred 24 hr); greater than 100 mg/mL in data set [2] (setting [7]).
In the case of `CCCN(CCC)Cn1cnc2c1c(=O)n(C)c(=O)n2C` [IV, 7-(Dipropylamino)methyltheophylline], the “qualitative order of stability” value in data set [1] was “V=VI>>IV>III>II”. For the same molecule, in data set [1], the “stability in IPM” value is reported as “stable in solution but the IPM insoluble material was theophylline”. For the same molecule, the “trend in IPM solubility” value in data set [2] (IPM) was “III>IV>VI>II>V”. For the same molecule, the values for the solubility in data set [2] (setting [6]) and in data set [2] (setting [7]) were 27.6 mg/mL (≈ 94.1 mM) and greater than 100 mg/mL, respectively.
As for `O=c1nc(NCN2CCOCC2)ccn1CN1CCOCC1` [IXb, Bis-N^4,1-(4'-morpholinyl)methylcytosine hydrate], in data set [3] (setting [8]), the half-life turned out to be 9.72 min.
For `Cn1c(=O)c2[nH]cnc2n(C)c1=O` [I], the solubility was found to be 0.095 mg/mL (≈ 0.527 mM) in data set [2] (isopropyl myristate, organic solvent or mixture) and 16.2 mg/mL (≈ 89.9 mM) in data set [2] (propylene glycol, organic solvent or mixture).
With `Cn1c(=O)c2c(ncn2CN2CCOCC2)n(C)c1=O` [V, 7-(4'-Morpholinyl)methyltheophylline], in data set [1], the “qualitative order of stability” value is “V=VI>>IV>III>II” and the “stability in IPM” value is reported as “stable in IPM either in the solid phase or in solution”. Moreover, the “Solubility, water (apparent)” value in data set [2] (1.0 ml water (pH 7.0) added to 100 mg, sonicated 10 sec, not accurate, rapid decomposition) is greater than 100 mg/mL. Besides, the “trend in IPM solubility” value in data set [2] (IPM) is recorded as “III>IV>VI>II>V”. The solubility in data set [2] (setting [9]) stood at 1.3 mg/mL (≈ 4.65 mM). Moreover, the solubility in data set [2] (setting [7]) is roughly 100 mg/mL (≈ 358 mM).
`Cn1c(=O)c2c(ncn2CN2CCCC2)n(C)c1=O` [VI, 7-(Pyrrolidyl)methyltheophylline]: in data set [1], the “qualitative order of stability” value is given as “V=VI>>IV>III>II” and the “stability in IPM” value is reported as “stable in IPM either in the solid phase or in solution”. Further, the “trend in IPM solubility” value in data set [2] (IPM) was “III>IV>VI>II>V”. Besides, the solubility in data set [2] (setting [9]) came to 10.7 mg/mL (≈ 40.6 mM). The solubility in data set [2] (setting [7]) was greater than 100 mg/mL.
In turn, `O=c1nc(NCN2CCCCC2)ccn1CN1CCCCC1` [VIII, Bis-N^4,1-(1'-piperidinyl)methylcytosine] displayed a half-life in data set [3] (setting [8]) of 1.42 min.
For the molecule `O=c1c(F)cn(CN2CCOCC2)c(=O)n1CN1CCOCC1` [VIII], the solubility is 11.8 mg/mL (≈ 35.9 mM) in data set [2] (setting [9]) and greater than 100 mg/mL in data set [2] (setting [7]).
`CN(C)CNc1ccn(CN(C)C)c(=O)n1` [X, Bis-N^4,1-(dimethylamino)methylcytosine hydrate] showed a half-life in data set [3] (setting [8]) of 1 min.
Still for that read-out and setting: to `CN1CCN(CNc2ccn(CN3CCN(C)CC3)c(=O)n2)CC1` [XI, Bis-N^4,1-(4'-methyl-1'-piperazinyl)methylcytosine hydrate] belongs 27.2 min.
As for `CN(C)CNc1nc(=O)n(CN(C)C)cc1F` [XIII, Bis-N^4,1-(dimethylamino)methyl-5-fluorocytosine hydrate], the “pH dependence of hydrolysis rate” value in data set [3] is listed as “hydrolyzed slower at basic pH”. In addition, the half-life in data set [3] (pH 6, Half-life of hydrolysis) was 0.51 min; in data set [3] (setting [10]), 0.74 min; in data set [3] (pH 8, Half-life of hydrolysis), 0.87 min. In addition, the “Kp, steady-state phase” value in data set [4] is on record as 365 cm/h (× 10^3). The “Kp, initial phase” value in data set [4] is reported as 149 cm/h (× 10^3). Also, the solubility in data set [5] is > 100000 µg/mL and > 400000 µM. The solubility at 48 h was 950 µM in data set [5] and 0.23 mg/mL in data set [5] (±SD).
Molecule `O=c1nc(NCN2CCCCC2)c(F)cn1CN1CCCCC1` [XIIa, bis-N^4,1-(1'-piperidinyl)methyl-5-fluorocytosine] had a half-life in data set [3] (setting [10]) of 0.89 min. For the same molecule, the “Kp, steady-state phase” value in data set [4] was 1671 cm/h (× 10^3). Besides, in data set [5], the “Solubility, water” value is 10 mg/ml and 0.03 M; the “Solubility, IPM” value is 1.6 M(× 10^4). Besides, the “Solubility, IPM” value in data set [5] (±SD) was 5.0 (0.9) mg/ml × 10^2.
In the case of `O=c1nc(NCN2CCCCC2)c(F)cn1CN1CCCCC1` [XIIb, Bis-N^4,1-(1'-piperidinyl)methyl-5-fluorocytosine], in data set [3] (pH 7.1 phosphate buffer 0.05 M, 24°), the “Half-life of hydrolysis, 5-FC derivatives” value was 0.90(0.01) min and 0.90 min. The molecule further showed a half-life in data set [3] (pH 6, Half-life of hydrolysis) of 0.86 min. This molecule also came in with a half-life in data set [3] (pH 8, Half-life of hydrolysis) of 0.79 min. Also, in data set [4], the “Kp, steady-state phase” value was 716 cm/h (× 10^3) and the “Kp, initial phase” value is reported as 174 cm/h (× 10^3). Also, in data set [5], the “IPM solubility relative to other compound” value is “twice”; the “Solubility, water” value was 25 mg/ml and 0.08 M; the “Solubility, IPM” value was 3.7 M(× 10^4). Further, the “Solubility, IPM” value in data set [5] (±SD) is 12.0 (0.5) mg/ml × 10^2.
Regarding `CCN(CC)CNc1nc(=O)n(CN(CC)CC)cc1F` [XIV, Bis-N^4,1-(diethylamino)methyl-5-fluorocytosine hydrate], the half-life in data set [3] (setting [10]) worked out at 0.1 min. In data set [5], the “IPM solubility relative to other compound” value was “approximately 230 times”; the solubility is > 100000 µg/mL and > 300000 µM; the solubility at 48 h turned out to be 9100 µM. The solubility at 48 h in data set [5] (±SD) turned out to be 2.71 mg/mL.
Consider `O=c1nc(NCN2CCCC2)c(F)cn1CN1CCCC1` [XV, Bis-N^4,1-(1'-pyrrolidyl)methyl-5-fluorocytosine hydrate], for which the “pH dependence of hydrolysis rate” value in data set [3] is “faster”. Further, the half-life in data set [3] (pH 6, Half-life of hydrolysis) turned out to be 1.01 min; in data set [3] (setting [10]), 1.05 min; in data set [3] (pH 8, Half-life of hydrolysis), 0.66 min. Moreover, in data set [5], the solubility was > 100000 µg/mL and > 300000 µM. The solubility at 48 h in data set [5] was 610 µM; in data set [5] (±SD) it was 0.18 mg/mL.
For `O=c1nc(NCN2CCOCC2)c(F)cn1CN1CCOCC1` [XVI, Bis-N^4,1-(4'-morpholinyl)methyl-5-fluorocytosine hydrate], the “pH dependence of hydrolysis rate” value in data set [3] was “hydrolyzed slower at basic pH”. Further, the half-life in data set [3] (pH 6, Half-life of hydrolysis) worked out at 1.19 min; in data set [3] (setting [10]), 9.1 min; in data set [3] (pH 8, Half-life of hydrolysis), 34.2 min. In addition, the “Kp, steady-state phase” value in data set [4] is recorded as 213 cm/h (× 10^3). Besides, the “Kp, initial phase” value in data set [4] is 73.9 cm/h (× 10^3). Further, the solubility in data set [5] is 25000 µg/mL and 80000 µM. The solubility at 48 h in data set [5] is 350 µM; in data set [5] (±SD) it was 0.18 mg/mL.
In the case of `CN1CCN(CNc2nc(=O)n(CN3CCN(C)CC3)cc2F)CC1` [XVII, Bis-N^4,1-(4'-methyl-1'piperazinyl)methyl-5-fluorocytosine hydrate], in data set [3], the “pH dependence of hydrolysis rate” value is on record as “hydrolyzed slower at basic pH”. Also, the half-life in data set [3] (pH 6, Half-life of hydrolysis) came to 20.1 min; in data set [3] (setting [10]) it was 26.3 min; in data set [3] (pH 8, Half-life of hydrolysis), 28.5 min. The “Kp, steady-state phase” value in data set [4] is reported as 919 cm/h (× 10^3). Besides, the “Kp, initial phase” value in data set [4] was 67.3 cm/h (× 10^3). In addition, the solubility in data set [5] was > 100000 µg/mL and > 300000 µM. The values for the solubility at 48 h in data set [5] and in data set [5] (±SD) were 220 µM and 0.071 mg/mL, respectively.
